According to PMC7470033, “In vitro inhibitory effect of lysionotin on the activity of cytochrome P450 enzymes” (Pharmaceutical Biology, 2020):

How the values were obtained:
[1] = target: T1, CYP3A4 (Homo sapiens, UniProt P08684); assay: CYP3A4 inhibition in pooled human liver microsomes (testosterone 6β-hydroxylation); format: in vitro ADME
T1 construct: Pooled HLMs were purchased from BD Biosciences Discovery Labware; tissue BD Biosciences Discovery Labware; host or cells: pooled human liver microsomes
Procedure: (§1) In this study, lysionotin was incubated with eight CYP isoforms (i.e., 1A2, 3A4, 2A6, 2E1, 2D6, 2C9, 2C19 and 2C8) in pooled human liver microsomes to investigate the interaction between lysionotin and CYPs, which can provide direct evidence for the effect of lysionotin on the activity of CYPs. In vitro, phenacetin (CYP1A2), testosterone (CYP3A4), coumarin (CYP2A6), chlorzoxazone (CYP2E1), dextromethorphan (CYP2D6), diclofenac (CYP2C9), S-mephenytoin (CYP2C19) and paclitaxel (CYP2C8) were used as probe substrates to determine the effects of lysionotin on eight CYP enzymes. In addition, enzyme kinetic studies were conducted to determine the inhibition model of lysionotin on CYP enzymes.
(§2) All incubations were performed in triplicate, and the mean values were utilised. The typical incubation systems contained 100 mM potassium phosphate buffer (pH 7.4), NADPH generating system (1 mM NADP^+, 10 mM glucose-6-phosphate, 1 U/mL of glucose-6-phosphate dehydrogenase, and 4 mM MgCl2), the appropriate concentration of HLMs, a corresponding probe substrate and lysionotin (or positive inhibitor for different probe reactions) in a final volume of 200 μL.
(§3) The concentration of lysionotin was 100 μM, and the positive inhibitor concentrations were as follows: 10 μM furafylline for CYP1A2, 1 μM ketoconazole for CYP3A4, 10 μM tranylcypromine for CYP2A6, 50 μM clomethiazole for CYP2E1, 10 μM quinidine for CYP2D6, 10 μM sulfaphenazole for CYP2C9, 50 μM tranylcypromine for CYP2C19, 5 μM montelukast for CYP2C8. […] The instrument used in this study was Agilent 1260 series instrument with DAD and FLD detector, and the quantitative assay for the corresponding metabolites was performed as previously reported and the detection conditions are summarised in Table 2 (He et al. [2015]; Lang et al. [2017]; Zhang et al. [2017]). […]
(§4) The enzyme kinetic parameters for the probe reaction were estimated from the best fit line, using least-squares linear regression of the inverse substrate concentration versus the inverse velocity (Lineweaver-Burk plots), and the mean values were used to calculate Vmax and Km. Inhibition data from the experiments that were conducted using multiple compound concentrations were represented by Dixon plots, and inhibition constant (Ki) values were calculated using non-linear regression according to the following equation: v=(VmaxS)/(Km(1+I/Ki+S)for competitive inhibition v=(VmaxS)/[(Km+S((1+I/Ki)] for non-competitive inhibition where I is the concentration of the compound, Ki is the inhibition constant, S is the concentration of the substrate, and Km is the substrate concentration at half the maximum velocity (Vmax) of the reaction. The mechanism of the inhibition was inspected using the Lineweaver-Burk plots and the enzyme inhibition models. […]

[2] = target: T2, CYP2C19 (Homo sapiens, UniProt P33261); assay: CYP2C19 inhibition in pooled human liver microsomes (S-mephenytoin 4-hydroxylation); format: in vitro ADME; conditions: for inhibition model of CYP2C19: Lineweaver-Burk plots
T2 construct: Pooled HLMs were purchased from BD Biosciences Discovery Labware; tissue BD Biosciences Discovery Labware; host or cells: pooled human liver microsomes
Procedure: as §1, §2
(§5) The concentration of lysionotin was 100 μM, and the positive inhibitor concentrations were as follows: 10 μM furafylline for CYP1A2, 1 μM ketoconazole for CYP3A4, 10 μM tranylcypromine for CYP2A6, 50 μM clomethiazole for CYP2E1, 10 μM quinidine for CYP2D6, 10 μM sulfaphenazole for CYP2C9, 50 μM tranylcypromine for CYP2C19, 5 μM montelukast for CYP2C8. Probe substrates, positive inhibitors (except for dextromethorphan and quinidine, which were dissolved in water), and lysionotin were dissolved in methanol, with a final concentration of 1% (v/v), and 1% neat methanol was added to the incubations without inhibitor. There was a 3 min preincubation period (at 37 °C) before the reaction was initiated by adding an NADPH-generating system. The reaction was terminated by adding a 100 μL acetonitrile (10% trichloroacetic acid for CYP2A6) internal standard mix, and the solution was placed on ice. The mixture was centrifuged at 12,000 rpm for 10 min, and an aliquot (50 μL) of supernatant was transferred for HPLC analysis. The instrument used in this study was Agilent 1260 series instrument with DAD and FLD detector, and the quantitative assay for the corresponding metabolites was performed as previously reported and the detection conditions are summarised in Table 2 (He et al. [2015]; Lang et al. [2017]; Zhang et al. [2017]). […]
as §4

[3] = target: T3, CYP2C8 (Homo sapiens, UniProt P10632); assay: CYP2C8 inhibition in pooled human liver microsomes (paclitaxel 6α-hydroxylation); format: in vitro ADME; conditions: for inhibition model of CYP2C8: Lineweaver-Burk plots
T3 construct: Pooled HLMs were purchased from BD Biosciences Discovery Labware; tissue BD Biosciences Discovery Labware; host or cells: pooled human liver microsomes
T3 sequence (P10632 1-490): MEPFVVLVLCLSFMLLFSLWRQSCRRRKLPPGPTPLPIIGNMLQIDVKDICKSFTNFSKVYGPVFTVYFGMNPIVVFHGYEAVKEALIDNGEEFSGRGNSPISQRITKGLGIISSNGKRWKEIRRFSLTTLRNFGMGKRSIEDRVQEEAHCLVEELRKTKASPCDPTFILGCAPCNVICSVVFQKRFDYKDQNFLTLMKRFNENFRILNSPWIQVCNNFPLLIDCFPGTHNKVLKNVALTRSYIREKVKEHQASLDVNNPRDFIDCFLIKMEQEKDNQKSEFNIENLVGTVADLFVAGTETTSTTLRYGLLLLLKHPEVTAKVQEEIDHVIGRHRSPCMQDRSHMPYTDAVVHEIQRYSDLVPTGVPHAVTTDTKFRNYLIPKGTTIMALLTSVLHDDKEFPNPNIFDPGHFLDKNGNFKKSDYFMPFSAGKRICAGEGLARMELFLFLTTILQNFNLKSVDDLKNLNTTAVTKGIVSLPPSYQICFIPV
Procedure: as §1, §2, §5, §4

[4] = target: T4, CYP1A2 (Homo sapiens, UniProt P05177); assay: CYP1A2 inhibition in pooled human liver microsomes (phenacetin O-deethylation); format: in vitro ADME; conditions: 100 μM lysionotin, pooled HLMs, p > 0.05
T4 construct: Pooled HLMs were purchased from BD Biosciences Discovery Labware; tissue BD Biosciences Discovery Labware; host or cells: pooled human liver microsomes
T4 sequence (P05177 1-516): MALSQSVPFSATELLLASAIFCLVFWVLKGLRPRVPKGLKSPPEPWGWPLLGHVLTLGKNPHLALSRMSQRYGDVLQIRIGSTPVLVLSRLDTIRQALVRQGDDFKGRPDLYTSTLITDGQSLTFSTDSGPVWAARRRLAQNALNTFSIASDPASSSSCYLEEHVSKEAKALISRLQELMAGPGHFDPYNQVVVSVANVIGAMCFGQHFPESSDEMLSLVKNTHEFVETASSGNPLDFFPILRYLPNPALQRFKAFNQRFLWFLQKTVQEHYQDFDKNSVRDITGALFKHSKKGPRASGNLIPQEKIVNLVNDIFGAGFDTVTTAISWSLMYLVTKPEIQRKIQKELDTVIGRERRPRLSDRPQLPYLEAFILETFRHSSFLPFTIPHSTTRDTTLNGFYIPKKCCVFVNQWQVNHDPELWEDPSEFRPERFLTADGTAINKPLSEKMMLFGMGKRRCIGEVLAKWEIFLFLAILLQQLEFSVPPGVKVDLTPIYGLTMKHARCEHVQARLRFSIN
Procedure: (§6) In this study, lysionotin was incubated with eight CYP isoforms (i.e., 1A2, 3A4, 2A6, 2E1, 2D6, 2C9, 2C19 and 2C8) in pooled human liver microsomes to investigate the interaction between lysionotin and CYPs, which can provide direct evidence for the effect of lysionotin on the activity of CYPs. In vitro, phenacetin (CYP1A2), testosterone (CYP3A4), coumarin (CYP2A6), chlorzoxazone (CYP2E1), dextromethorphan (CYP2D6), diclofenac (CYP2C9), S-mephenytoin (CYP2C19) and paclitaxel (CYP2C8) were used as probe substrates to determine the effects of lysionotin on eight CYP enzymes. In addition, enzyme kinetic studies were conducted to determine the inhibition model of lysionotin on CYP enzymes. […]
as §3

[5] = target: T5, CYP2A6 (Homo sapiens, UniProt P11509); assay: CYP2A6 inhibition in pooled human liver microsomes (coumarin 7-hydroxylation); format: in vitro ADME; conditions: 100 μM lysionotin, pooled HLMs, p > 0.05
T5 construct: Pooled HLMs were purchased from BD Biosciences Discovery Labware; tissue BD Biosciences Discovery Labware; host or cells: pooled human liver microsomes
T5 sequence (P11509 1-494): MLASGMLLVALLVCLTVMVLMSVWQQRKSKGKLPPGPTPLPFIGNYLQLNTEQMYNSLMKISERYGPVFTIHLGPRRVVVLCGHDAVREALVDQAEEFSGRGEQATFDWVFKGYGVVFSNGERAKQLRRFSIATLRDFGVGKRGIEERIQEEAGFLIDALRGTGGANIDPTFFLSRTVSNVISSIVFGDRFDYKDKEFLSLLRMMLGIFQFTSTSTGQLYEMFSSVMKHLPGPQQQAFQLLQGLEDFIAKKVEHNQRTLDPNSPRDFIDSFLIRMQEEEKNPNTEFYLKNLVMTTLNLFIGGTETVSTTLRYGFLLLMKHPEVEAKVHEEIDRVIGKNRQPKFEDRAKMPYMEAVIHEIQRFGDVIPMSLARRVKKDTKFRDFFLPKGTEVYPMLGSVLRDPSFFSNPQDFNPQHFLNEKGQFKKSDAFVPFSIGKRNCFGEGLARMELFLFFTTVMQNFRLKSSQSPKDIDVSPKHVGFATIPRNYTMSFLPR
Procedure: as §6, §3

[6] = target: T6, CYP2E1 (Homo sapiens, UniProt P05181); assay: CYP2E1 inhibition in pooled human liver microsomes (chlorzoxazone 6-hydroxylation); format: in vitro ADME; conditions: 100 μM lysionotin, pooled HLMs, p > 0.05
T6 construct: Pooled HLMs were purchased from BD Biosciences Discovery Labware; tissue BD Biosciences Discovery Labware; host or cells: pooled human liver microsomes
Procedure: as §6, §3

[7] = target: T7, CYP2D6 (Homo sapiens, UniProt P10635); assay: CYP2D6 inhibition in pooled human liver microsomes (dextromethorphan O-demethylation); format: in vitro ADME; conditions: 100 μM lysionotin, pooled HLMs, p > 0.05
T7 construct: Pooled HLMs were purchased from BD Biosciences Discovery Labware; tissue BD Biosciences Discovery Labware; host or cells: pooled human liver microsomes
Procedure: as §6, §3

[8] = target: T8, CYP2C9 (Homo sapiens, UniProt P11712); assay: CYP2C9 inhibition in pooled human liver microsomes (diclofenac 4′-hydroxylation); format: in vitro ADME; conditions: 100 μM lysionotin, pooled HLMs, p > 0.05
T8 construct: Pooled HLMs were purchased from BD Biosciences Discovery Labware; tissue BD Biosciences Discovery Labware; host or cells: pooled human liver microsomes
Procedure: as §6, §3

[9] = target: T1, CYP3A4; assay: Time-dependent inhibition study of CYP3A4 in HLMs; format: in vitro ADME
Procedure: (§7) To determine whether lysionotin could inhibit the activity of CYP3A4, 2C19, and 2C8 in a time-dependent manner, lysionotin (20 μM) was pre-incubated with HLMs (1 mg/mL) in the presence of an NADPH-generating system for 30 min at 37 °C. After incubation, an aliquot (20 μL) was transferred to another incubation tube (final volume 200 μL) containing an NADPH-generating system and probe substrates whose final concentrations were approximate to Km. Then, further incubations were performed to measure the residual activity. After being incubated for 0, 5, 10, 15, and 30 min, the reactions were terminated by adding a 100 μL acetonitrile internal standard mix and then placed on ice; the corresponding metabolites were determined by HPLC.
To determine the KI and Kinact values for the inactivation of CYP3A4, the incubations were conducted using higher probe substrate concentrations (approximately 4-fold Km values) and various concentrations of lysionotin (0–50 μM) after different preincubation times (0–30 min), with a two-step incubation scheme, as described above. The value of KI and Kinact was calculated with the equation 1/Kobs = KI/Kinact*1/[I] + 1/Kinact. Where Kobs is the pseudo-first-order rate constant of inactivation at inactivated concentration [I], Kinact is the maximum inactivation rate (a theoretical value that cannot be experimentally observed), and KI is the inactivated concentration when the rate of inactivation reaches half of Kinact.

[10] = target: T2, CYP2C19; assay: Time-dependent inhibition study of CYP2C19 in HLMs; format: in vitro ADME; conditions: 20 μM lysionotin, 0–30 min
Procedure: as §7

[11] = target: T3, CYP2C8; assay: Time-dependent inhibition study of CYP2C8 in HLMs; format: in vitro ADME; conditions: 20 μM lysionotin, 0–30 min
Procedure: as §7

[12] = design: method as in Liu et al. [2013]; conditions: oral administration of 50 mg/kg, ref Liu et al. [2013]; cited from earlier work

T1 sequence (P08684 whole entry): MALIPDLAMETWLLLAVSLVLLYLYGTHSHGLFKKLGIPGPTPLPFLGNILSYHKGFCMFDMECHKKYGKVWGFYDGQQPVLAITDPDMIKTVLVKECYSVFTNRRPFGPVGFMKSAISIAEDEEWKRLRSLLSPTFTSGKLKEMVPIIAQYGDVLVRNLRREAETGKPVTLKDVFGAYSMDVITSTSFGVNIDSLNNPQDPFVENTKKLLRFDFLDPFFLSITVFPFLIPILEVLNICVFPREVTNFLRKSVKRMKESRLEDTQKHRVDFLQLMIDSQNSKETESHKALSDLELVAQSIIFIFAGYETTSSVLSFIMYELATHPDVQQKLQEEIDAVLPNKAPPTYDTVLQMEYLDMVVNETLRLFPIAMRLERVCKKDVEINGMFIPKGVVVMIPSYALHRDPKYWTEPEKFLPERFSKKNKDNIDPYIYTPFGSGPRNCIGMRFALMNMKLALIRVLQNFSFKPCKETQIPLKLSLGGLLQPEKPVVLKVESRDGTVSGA
T2 sequence (P33261 whole entry): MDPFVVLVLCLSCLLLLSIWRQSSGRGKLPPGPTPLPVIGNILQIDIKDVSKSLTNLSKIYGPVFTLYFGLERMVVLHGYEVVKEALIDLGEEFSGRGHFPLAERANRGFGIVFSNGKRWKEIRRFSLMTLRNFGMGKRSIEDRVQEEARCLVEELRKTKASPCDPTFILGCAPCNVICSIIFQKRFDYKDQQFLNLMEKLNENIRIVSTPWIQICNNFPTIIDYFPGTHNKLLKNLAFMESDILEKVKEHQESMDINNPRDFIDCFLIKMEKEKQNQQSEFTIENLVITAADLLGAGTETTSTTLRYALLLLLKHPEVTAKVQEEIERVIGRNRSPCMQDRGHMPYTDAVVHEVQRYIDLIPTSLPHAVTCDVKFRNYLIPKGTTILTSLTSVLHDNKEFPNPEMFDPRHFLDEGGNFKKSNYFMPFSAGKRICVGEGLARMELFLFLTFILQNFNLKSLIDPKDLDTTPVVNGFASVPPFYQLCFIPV
T7 sequence (P10635 whole entry): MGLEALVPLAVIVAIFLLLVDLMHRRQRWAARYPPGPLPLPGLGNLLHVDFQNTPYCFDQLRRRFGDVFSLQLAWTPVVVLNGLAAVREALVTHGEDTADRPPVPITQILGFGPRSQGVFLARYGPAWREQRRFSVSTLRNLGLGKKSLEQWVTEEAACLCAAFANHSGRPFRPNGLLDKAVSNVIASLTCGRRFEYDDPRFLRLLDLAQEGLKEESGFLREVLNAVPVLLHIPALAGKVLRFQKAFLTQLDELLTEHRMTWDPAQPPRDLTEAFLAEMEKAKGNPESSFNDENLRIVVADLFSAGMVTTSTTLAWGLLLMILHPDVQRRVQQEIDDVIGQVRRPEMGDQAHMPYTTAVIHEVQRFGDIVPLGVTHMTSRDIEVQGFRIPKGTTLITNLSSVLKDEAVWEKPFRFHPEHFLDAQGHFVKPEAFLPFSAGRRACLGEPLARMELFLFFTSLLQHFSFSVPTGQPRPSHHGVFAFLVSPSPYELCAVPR
T8 sequence (P11712 whole entry): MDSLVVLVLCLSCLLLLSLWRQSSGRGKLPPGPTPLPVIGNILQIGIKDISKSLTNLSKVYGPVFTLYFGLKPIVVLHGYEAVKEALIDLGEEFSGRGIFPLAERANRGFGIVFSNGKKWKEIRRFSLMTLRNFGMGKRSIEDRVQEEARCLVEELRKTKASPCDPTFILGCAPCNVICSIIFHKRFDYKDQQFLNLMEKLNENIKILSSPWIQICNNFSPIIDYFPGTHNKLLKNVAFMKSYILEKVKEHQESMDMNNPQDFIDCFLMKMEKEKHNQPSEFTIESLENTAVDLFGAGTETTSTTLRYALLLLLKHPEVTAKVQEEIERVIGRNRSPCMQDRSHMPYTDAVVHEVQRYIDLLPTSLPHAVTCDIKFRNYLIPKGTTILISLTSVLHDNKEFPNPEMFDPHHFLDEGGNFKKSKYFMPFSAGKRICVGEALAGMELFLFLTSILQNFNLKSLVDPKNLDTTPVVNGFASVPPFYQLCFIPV
T6 sequence (P05181 whole entry): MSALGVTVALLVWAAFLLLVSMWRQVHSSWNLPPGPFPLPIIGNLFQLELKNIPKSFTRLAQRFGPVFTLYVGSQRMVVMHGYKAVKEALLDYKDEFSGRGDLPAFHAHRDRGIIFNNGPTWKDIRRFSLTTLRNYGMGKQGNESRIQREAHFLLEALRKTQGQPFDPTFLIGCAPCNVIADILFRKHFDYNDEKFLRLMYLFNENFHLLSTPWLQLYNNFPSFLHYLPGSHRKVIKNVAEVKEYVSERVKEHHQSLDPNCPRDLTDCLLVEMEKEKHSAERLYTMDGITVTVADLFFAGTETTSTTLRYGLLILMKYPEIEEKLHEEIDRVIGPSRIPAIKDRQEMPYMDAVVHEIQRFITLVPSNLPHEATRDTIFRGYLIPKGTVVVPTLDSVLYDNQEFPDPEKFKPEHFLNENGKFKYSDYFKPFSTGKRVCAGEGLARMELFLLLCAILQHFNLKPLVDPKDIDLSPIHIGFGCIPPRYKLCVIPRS

COc1ccc(-c2cc(=O)c3c(O)c(OC)c(O)c(OC)c3o2)cc1 [lysionotin, Lysionotin]
activity of CYP3A4 decreased by ([1]; 100 μM lysionotin, pooled HLMs): 86.33%
inhibition model of CYP3A4 ([1]; Lineweaver-Burk plots): non-competitive
Ki ([1]; non-competitive model, testosterone 20–100 μM, pooled HLM): 6.83 µM
IC50 ([1]; pooled HLMs, testosterone 6β-hydroxylation): 13.8 µM
activity of CYP2C19 decreased by ([2]; 100 μM lysionotin, pooled HLMs): 74.86%
inhibition model of CYP2C19 [2]: competitively
inhibition model of CYP2C19 ([2]; listed as Lysionotin): competitive
Ki ([2]; competitive model, mephenytoin 50–200 μM, lysionotin 0–50 μM, pooled HLM): 12.4 µM
IC50 ([2]; pooled HLMs, S-mephenytoin 4-hydroxylation): 25 µM
activity of CYP2C8 decreased by ([3]; 100 μM lysionotin, pooled HLMs): 67.22%
inhibition model of CYP2C8 [3]: competitively
inhibition model of CYP2C8 ([3]; listed as Lysionotin): competitive
Ki ([3]; competitive model, paclitaxel 5–20 μM, lysionotin 0–50 μM, pooled HLM): 14.5 µM
IC50 ([3]; pooled HLMs, paclitaxel 6α-hydroxylation): 30 µM
effect on the activity of CYP1A2 [4]: not affected
effect on the activity of CYP2A6 [5]: not affected
effect on the activity of CYP2E1 [6]: not affected
effect on the activity of CYP2D6 [7]: not affected
effect on the activity of CYP2C9 [8]: not affected
effect of incubation time on the inhibition of CYP3A4 ([9]; 20 μM lysionotin, 0–30 min): time-dependent
CYP3A4 inactivated every minute ([9]; during incubation with lysionotin): about 4.8%
KI (inactivation) ([9]; human, human liver microsomes, probe testosterone (approximately 4-fold Km), lysionotin 0–50 μM, preincubation 0–30 min, NADPH, printed as KI/Kinact): 6.62 µM
Kinact for inactivation of CYP3A4 ([9]; lysionotin 0–50 μM, preincubation 0–30 min, NADPH, printed as KI/Kinact): 0.048 min⁻¹
effect of incubation time on the inhibition of CYP2C19 [10]: relatively stable
effect of incubation time on the inhibition of CYP2C8 [11]: relatively stable
Cmax in rat plasma [12]: 0.0584 ± 0.0103 µg/mL
